Converted amounts (≈) assume the structure as drawn. The source made the active and inactive calls. The rule behind the calls is not given here.
Tests used:
HEK-293T [1] = experiment: Cytotoxicity against HEK293T cells expressing rat SK3 assessed as cell viability at 10 uM after 48 hrs by MTT assay; assay type: cell-based; settings: human
HEK-293T [2] = experiment: Effect on SK3 deficient HEK293T cell migration at 100 nM after 15 hrs by DAPI staining; assay type: functional, cell-based; settings: Homo sapiens
[3] = molecular target: Small conductance calcium-activated potassium channel protein 3 (Rattus norvegicus) (UniProt P70605); experiment: Inhibition of recombinant rat SK3 expressed in HEK293T cells assessed as inhibition of cell migration at 100 nM after 15 hrs by DAPI staining; assay type: cell-based; settings: HEK-293T
Sequence of Small conductance calcium-activated potassium channel protein 3 (Rattus norvegicus) (P70605 whole entry): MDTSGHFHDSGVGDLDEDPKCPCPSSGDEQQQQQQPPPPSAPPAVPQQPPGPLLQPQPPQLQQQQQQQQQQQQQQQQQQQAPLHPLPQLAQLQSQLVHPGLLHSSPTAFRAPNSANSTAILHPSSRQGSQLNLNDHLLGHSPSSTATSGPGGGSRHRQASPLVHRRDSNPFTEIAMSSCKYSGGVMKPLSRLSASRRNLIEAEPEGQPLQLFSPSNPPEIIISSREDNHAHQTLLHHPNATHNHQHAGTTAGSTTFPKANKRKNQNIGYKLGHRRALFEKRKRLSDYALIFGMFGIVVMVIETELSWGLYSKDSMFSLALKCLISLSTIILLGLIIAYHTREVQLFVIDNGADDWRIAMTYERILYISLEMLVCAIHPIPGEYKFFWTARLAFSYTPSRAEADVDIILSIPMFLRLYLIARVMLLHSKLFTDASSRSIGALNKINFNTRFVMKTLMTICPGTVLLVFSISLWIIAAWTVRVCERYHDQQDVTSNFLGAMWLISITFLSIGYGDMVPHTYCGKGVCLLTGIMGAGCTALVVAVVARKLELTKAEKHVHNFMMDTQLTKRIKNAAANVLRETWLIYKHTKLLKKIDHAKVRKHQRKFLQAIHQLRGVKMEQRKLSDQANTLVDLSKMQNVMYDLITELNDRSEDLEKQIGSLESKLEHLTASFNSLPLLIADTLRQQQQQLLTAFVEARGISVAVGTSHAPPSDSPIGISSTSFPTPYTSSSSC

[4] = molecular target: Small conductance calcium-activated potassium channel protein 3 (Rattus norvegicus) (UniProt P70605); experiment: Inhibition of recombinant rat SK3 expressed in HEK293T cells assessed as decrease in channel current amplitude at 0 mV holding potential at 10 uM measured for 3 mins by patch clamp assay relative to control; assay type: cell-based; settings: HEK-293T
[5] = Solubility of the compound in water; assay type: physicochemical

inhibition [3] | inhibition [4] | solubility [5] | SMILES | Activity (HEK-293T [1]) | Activity (HEK-293T [2])
40% | 73.2% | 9 µM (≈ 5.89 µg/mL) | CCCCCCCCCCCCCCCCOCC(CO[C@H]1O[C@H](CO)[C@@H](O[C@@H]2O[C@H](CO)[C@H](O)[C@H](O)[C@H]2O)[C@H](O)[C@H]1O)OC (some centres not stated) | Non-toxic | inactive
40% | 65.5% |  | CCCCCCCCCCCCCCCCOCC(COP(=O)(O)OC1O[C@H](CO[C@H]2O[C@H](CO)[C@H](O)[C@H](O)[C@H]2O)[C@@H](O)[C@H](O)[C@H]1O)OC.CCN(CC)CC (some centres not stated) | Non-toxic | inactive
40% | 70.8% |  | CCCCCCCCCCCCCCCCOCC(COP(=O)(O)O[C@H]1O[C@H](CO)[C@@H](O[C@H]2O[C@H](CO)[C@@H](O)[C@H](O)[C@H]2O)[C@H](O)[C@H]1O)OC.CCN(CC)CC (some centres not stated) | Non-toxic | inactive
40% | 60% |  | CCCCCCCCCCCCCCCCOCC(COP(=O)(O)OC1O[C@H](CO)[C@@H](O[C@H]2O[C@H](CO)[C@@H](O)[C@H](O)[C@H]2O)[C@H](O)[C@H]1O)OC.CCN(CC)CC (some centres not stated) | Non-toxic | inactive
40% | 69.2% | 16 µM | CCCCCCCCCCCCCCCCOCC(COP(=O)(O)OC1O[C@H](CO)[C@@H](O[C@@H]2O[C@H](CO)[C@H](O)[C@H](O)[C@H]2O)[C@H](O)[C@H]1O)OC.CCN(CC)CC (some centres not stated) | Non-toxic | inactive

Reference: ChEMBL document CHEMBL3217534, “Glyco-Phospho-Glycero Ether Lipids (GPGEL): synthesis and evaluation as small conductance Ca2+-activated K+ channel (SK3) inhibitors” (Medchemcomm, 2012)
